Results as given in publication PMC10451632, “Site Mutation Improves the Expression and Antimicrobial Properties of Fungal Defense” (Antibiotics, 2023).
Converted amounts (≈) assume the structure as drawn. Bridge positions count the residues as written; N and C are the ends. Peptide text beside a SMILES is read from it.

Legend:
[1] = pH stability, MIC read-out; assay type: physicochemical; details: pH from 2 to 10, buffers, 37 °C, 4 h, MIC read-out after dilution, triplicate
Method: PN7 dissolved in physiological saline solution was prepared into mother liquor with a concentration of 1280 μg/mL and incubated at different temperatures for 1 h. PN7 was dissolved in different pH buffers at 37 °C for 4 h. After double gradient dilution, MIC assays were used to detect the change in antibacterial activity.

S. aureus ATCC 43300 [2] = assay: Membrane permeability, PI staining by FACS; assay type: cell-based, Staphylococcus aureus; details: 2× MIC, 10^8 CFU/mL, 37 °C
Method: Figure 8 In vitro antimicrobial analysis of PN7. (A): Time-kill curve of PN7, Plectasin, and vancomycin against S. aureus ATCC. All experiments were performed in triplicate. (B): The PAE of 1×, 2× and 4× MIC of PN7 and vancomycin against S. aureus ATCC 43300 (the MIC values of PN7 and vancomycin against S. aureus ATCC 43300 were 8 μg/mL and 1μg/mL, respectively). All experiments were performed in triplicate. (C): The morphological influence of PN7 on S. aureus ATCC 43300 was observed by SEM. (D,E): The effects of PN7 (D) and Plectasin (E)) on membrane permeability were analyzed by FACS. The logarithmic phase S. aureus ATCC 43300 cells (10^8 CFU/mL) were incubated with or without 2× MIC peptide solutions at 37 °C at different times. All experiments were performed in triplicate. Ple stands for the Plectasin treatment group, Van stands for the vancomycin treatment group, and CK stands for the untreated group. TEXT PRINTED IN THE PICTURE: (D) PN7: 34.4% (2×; 90min); 31.2% (2×; 75min); 30.4% (2×; 60min); 19.2% (2×; 45min); 16.7% (2×; 30min); 1.94% (2×; 15min) | (E) Ple: 32.0% (2×; 90min); 27.4% (2×; 75min); 25.2% (2×; 60min); 12.8% (2×; 45min); 12.0% (2×; 30min); 2.11% (2×; 15min) DOUBTS OF THE COPYIST ABOUT THIS PICTURE: Panels D and E: the picture prints no measure for the percentages, only labels such as "2×PN7-90min: 34.4%" / Panels D and E: "CK: 0.54%" is the untreated control, not a substance, and was left out
The fluorescent dye propidium iodide (PI; Solarbio, Beijing, China) was used to detect the effect of PN7 on the membrane permeability of Staphylococcus aureus. The test method refers to the descriptions in previous studies.

E. coli CVCC 1515 = assay: MIC, microtiter broth dilution; assay type: cell-based, Escherichia coli; details: MHB, 10^5 CFUs/mL, 16–18 h at 37 °C
Method: (§1) The MIC value of PN7 against bacteria was determined by the microtiter broth dilution method. Briefly, bacteria grown to the exponential phase were diluted into MHB; subsequently, 90 μL of bacterial suspension (10^5 CFUs/mL) was mixed with 10 μL of different concentrations of PN7 in a sterilized 96-well microtiter plate (Nunc). MIC values were recorded after incubation for 16–18 h at 37 °C based on the lowest concentrations of peptides in which no visible bacterial growth was observed.

E. coli O157 = assay: MIC, microtiter broth dilution; assay type: cell-based, Escherichia coli; details: MHB, 10^5 CFUs/mL, 16–18 h at 37 °C
Method: as §1

E. coli ATCC 25922 = assay: MIC, microtiter broth dilution; assay type: cell-based, Escherichia coli; details: MHB, 10^5 CFUs/mL, 16–18 h at 37 °C
Method: as §1

S. agalactiae ATCC 13813 = assay: MIC, microtiter broth dilution; assay type: cell-based; details: MHB, 10^5 CFUs/mL, 16–18 h at 37 °C
Method: as §1

[3] = test system: Escherichia coli CVCC 195; assay: MIC, microtiter broth dilution; assay type: cell-based; details: MHB, 10^5 CFUs/mL, 16–18 h at 37 °C
Method: as §1

[4] = test system: S. epidermidis ATCC 35984; assay: MIC, microtiter broth dilution; assay type: cell-based; details: MHB, 10^5 CFUs/mL, 16–18 h at 37 °C
Method: as §1

S. pullorum CVCC 1789 = assay: MIC, microtiter broth dilution; assay type: cell-based; details: MHB, 10^5 CFUs/mL, 16–18 h at 37 °C
Method: as §1

[5] = test system: Salmonella enterica ATCC 13076; assay: MIC, microtiter broth dilution; assay type: cell-based; details: MHB, 10^5 CFUs/mL, 16–18 h at 37 °C
Method: as §1

S. agalactiae CAU-FRI-4 = assay: MIC, microtiter broth dilution; assay type: cell-based; details: MHB, 10^5 CFUs/mL, 16–18 h at 37 °C
Method: as §1

S. hyicus NCTC 10350 = assay: MIC, microtiter broth dilution; assay type: cell-based; details: MHB, 10^5 CFUs/mL, 16–18 h at 37 °C
Method: as §1

S. hyicus 437-2 = assay: MIC, microtiter broth dilution; assay type: cell-based; details: MHB, 10^5 CFUs/mL, 16–18 h at 37 °C
Method: as §1

S. enteritidis CVCC 3377 = assay: MIC, microtiter broth dilution; assay type: cell-based; details: MHB, 10^5 CFUs/mL, 16–18 h at 37 °C
Method: as §1

[6] = test system: Streptococcus. suis CVCC 606; assay: MIC, microtiter broth dilution; assay type: cell-based; details: MHB, 10^5 CFUs/mL, 16–18 h at 37 °C
Method: as §1

[7] = test system: Pseudomonas aeruginosa CICC 20625; assay: MIC, microtiter broth dilution; assay type: cell-based; details: MHB, 10^5 CFUs/mL, 16–18 h at 37 °C
Method: as §1

S. aureus ATCC 43300 [8] = assay: Time-killing curves; assay type: cell-based, Staphylococcus aureus; details: for reduction of bacterial counts during the first two hours: initial inoculum 5.15 Log10 CFU/mL, MHB, 37 °C, 250 rpm, triplicate
Method: S. aureus ATCC 43300 was cultured to the logarithmic stage, MHB medium was used for adjusting the concentration of bacterial suspension, and PN7 (1×, 2× and 4× MIC), Plectasin (1×, 2× and 4× MIC) and 2× MIC vancomycin (the MIC was 1 μg/mL) were added into the suspensions containing 10^5 CFU/mL bacteria (after the count of viable bacteria detection, the initial inoculation amount was 5.15 Log10 CFU/mL), cultured at 37 °C and 250 rpm. A 100 CFU/mL is considered the detection limit. […] In contrast, the count was reduced by 1.6 Log10 CFU/mL after treatment with 2× MIC vancomycin, an approximately 66% population decrease of target pathogens compared with the PN7 treatment group at the same time point of the second hour. After 4 h, the colony number of the peptide treatment group was almost 0, while that of the vancomycin treatment group was 0 after 8 h, at 4 h later than the PN7 treatment. At 24 h, the number of colonies of only 1× MIC Plectasin treatment group rebounded, while no such phenomenon occurred in the other treatment groups.
S. aureus ATCC 43300 was cultured to the logarithmic stage. MHB medium adjusted the concentration of bacterial suspension, and PN7 (1×, 2× and 4× MIC) was added into the suspensions containing 10^5 CFU/mL bacteria, cultured at 37 °C and 250 rpm. 1×, 2×, 4× MIC Plectasin and 2× MIC vancomycin were used as positive controls, and the group treated without antibiotics was used as the blank controls. Then, 100 μL samples were taken at different time points and were continuously diluted and coated on MHA medium for colony counting. A 100 CFU/mL is considered the detection limit.

CC[C@H](C)[C@@H]1NC(=O)[C@H](CO)NC(=O)[C@H](CCCCN)NC(=O)[C@@H]2CSSC[C@@H](C(=O)N[C@@H](Cc3ccc(O)cc3)C(=O)O)NC(=O)[C@H](CCCCN)NC(=O)[C@@H]3CSSC[C@H](NC(=O)[C@H](CCCNC(=N)N)NC(=O)CNC(=O)[C@H](CC(=O)O)NC(=O)[C@H](CC(=O)O)NC(=O)[C@H](CCC(=O)O)NC(=O)[C@H](Cc4ccc(O)cc4)NC(=O)[C@H](Cc4c[nH]c5ccccc45)NC(=O)[C@@H]4CCCN4C(=O)CNC(=O)[C@H](CC(N)=O)NC(=O)[C@@H](NC(=O)CNC(=O)[C@H](Cc4ccccc4)NC(=O)CN)CSSC[C@H](NC(=O)[C@H](Cc4ccc(O)cc4)NC(=O)CNC(=O)CNC(=O)[C@H](CCCCN)NC(=O)[C@H](Cc4ccc(O)cc4)NC(=O)CNC(=O)[C@H](CCCCN)NC1=O)C(=O)N[C@@H](C)C(=O)N[C@@H](CCCCN)C(=O)NCC(=O)NCC(=O)N[C@@H](Cc1ccccc1)C(=O)N[C@@H](C(C)C)C(=O)N3)C(=O)N[C@@H](Cc1c[nH]cn1)C(=O)N[C@@H](CC(N)=O)C(=O)N[C@@H](Cc1c[nH]cn1)C(=O)N2 [PN7] (H-GFGCNGPWYEDDGRCHNHCKSIKGYKGGYCAKGGFVCKCY-OH; disulfide 4-30, 15-37, 19-39 (inferred); N-terminus and C-terminus assumed)
pH stability (antibacterial activity) [1]: stable | PI-staining percentage of cells (S. aureus ATCC 43300 [2]; 30 min): 16.7% | PI-staining percentage of cells (S. aureus ATCC 43300 [2]; 60 min): 30.4% | PI-staining percentage of cells (S. aureus ATCC 43300 [2]; 90 min): 34.4% | MIC (E. coli CVCC 1515): >128 µg/mL | MIC (E. coli O157): >128 µg/mL | MIC (E. coli ATCC 25922): >128 µg/mL | MIC (S. agalactiae ATCC 13813): 2 µg/mL (≈ 0.454 µM) | MIC [3]: >128 µg/mL | MIC [4]: 16 µg/mL (≈ 3.63 µM) | MIC (S. pullorum CVCC 1789): >128 µg/mL | MIC [5]: >128 µg/mL | MIC (S. agalactiae CAU-FRI-4): 1 µg/mL (≈ 0.227 µM) | MIC (S. hyicus NCTC 10350): 4 µg/mL (≈ 0.908 µM) | MIC (S. hyicus 437-2): 8 µg/mL (≈ 1.82 µM) | MIC (S. enteritidis CVCC 3377): >128 µg/mL | MIC [6]: 1 µg/mL (≈ 0.227 µM) | MIC [7]: >128 µg/mL | reduction of bacterial counts during the first two hours (S. aureus ATCC 43300 [8]; 1× MIC): 2.25 Log10 CFU/mL | reduction of bacterial counts during the first two hours (S. aureus ATCC 43300 [8]; 2× MIC): 2.42 Log10 CFU/mL | reduction of bacterial counts during the first two hours (S. aureus ATCC 43300 [8]; 4× MIC): 2.72 Log10 CFU/mL | time to kill 99% of S. aureus ATCC 43300 (S. aureus ATCC 43300 [8]; time-kill, 2× MIC): ≤ 2 h
